From a melting point compilation (Tetko et al.; mined from patent text by program, amines drawn as free bases though some values may be those of a salt)

For `COC(=O)CCCCCCC1C(=O)CCN1C(=O)c1ccc(-c2ccccc2)cc1` (stereo not drawn), the melting point was 90 to 92 °C. `CC(C)(C)OC(=O)NC1CCCCCC=CC2CC2(C(=O)NS(=O)(=O)C2CC2)NC(=O)C2CC(OC(=O)c3cccnc3)CN2C1=O` (stereo not drawn) showed a melting point of 157 to 159 °C. In the case of `Cc1ccc(S(=O)(=O)NC(=O)Nc2ccc(Br)c(C)c2)cc1`, the melting point is reported as 178 to 180 °C. In the case of `OCC1CCc2cc(OCc3ccccc3)ccc2O1` (racemic), the melting point is reported as 80 to 82 °C. `COc1ccc(-c2cccc(OC3SCC(OC(C)=O)C(OC(C)=O)C3OC(C)=O)c2)cn1` (stereo not drawn) gave a melting point of 132 °C. With `Cc1ccc(S(=O)(=O)N(c2ccc(Cl)cc2C(N)=O)C(C)C)cc1` the melting point was 177 to 178 °C. `COc1ccc(-c2c(Cl)c(CN3C(=O)CCC3=O)nc3sc4c(c23)CCN(C(C)=O)C4)cc1` showed a melting point of 266 to 267 °C. Work on `O=CN(Cc1cccc2ccccc12)c1cccc(NC(=O)c2cc(Cl)cc(Cl)c2)c1` yielded a melting point of 205 to 208 °C. Work on `CC(C)C(=O)CCC(C)C1CCC2C3CC(O)C4CC(O)CCC4(C)C3CCC12C` (stereo not drawn) yielded a melting point of 180 to 181 °C. Work on `CCOC(=O)CNC(=O)[C@H](CC(C)C)NC(=O)[C@@H]1CCCN1C(=O)OCc1ccccc1` yielded a melting point of 149 to 150 °C. With `CCCCCCn1nnc(NC(=O)Nc2c(C(C)C)cccc2C(C)C)n1` the melting point was 154 to 156 °C. In the case of `CCC12CCC(=O)CC1CCc1cc(O)ccc12` (stereo not drawn), the melting point is reported as 168 to 170 °C. Compound `Nc1c(Cl)cc(Nc2ncnc3cnc(N[C@H]4CC[C@H](C(=O)N5CCOCC5)CC4)nc23)cc1Cl` has a melting point of 204 to 207 °C. Work on `COc1ccc2c(c1)Sc1c(cc(OC)c(O)c1Br)N2C` yielded a melting point of 154 to 155 °C. Work on `COc1cc(-c2ncnc(C(F)F)c2Cl)c(F)cc1Cl` yielded a melting point of 118 to 119 °C. For `COC(=O)c1cnn(OCCCC2OCCO2)c1`, the melting point was 40 to 42 °C. Work on `Cc1cccc(-c2c(C3CCN(C)CC3)[nH]c(=O)c3ccccc23)c1` yielded a melting point of 214 to 216 °C. Work on `Cc1nnc(-c2ccc3occ(-c4ccccc4F)c3c2)o1` yielded a melting point of 112 to 113 °C. With `CC(=O)Oc1cc2c(s1)C(N1CCCC1=O)CC(C)(C)O2` (stereo not drawn) the melting point was 92 to 93 °C. `COC(=O)c1ccccc1Nc1cccc(C(C)O)c1Cl` (stereo not drawn) showed a melting point of 94 to 95 °C. `COc1cc(C2=C(c3cn(CCCNC(=O)C(CO)NC(=O)OC(C)(C)C)c4ccccc34)C(=O)NC2=O)cc(OC)c1OC` (stereo not drawn) showed a melting point of 112 to 114 °C. For `O=C1CCCN1[C@@H]1c2cc(C(F)(F)F)ccc2OC(CF)(CF)[C@H]1O` (relative stereo), the melting point was 186 to 187 °C. Compound `COC(=O)CC1CCCN(C(=O)c2ccc(N3CCCC3)cc2Cl)c2ccccc21` (stereo not drawn) has a melting point of 158 °C. `O=c1[nH]c2cc(Cl)cc([N+](=O)[O-])c2[nH]c1=O` gave a melting point of 315 to 317 °C. Compound `Oc1ccccc1-c1nc(-c2ccccc2O)nc(-c2ccccc2O)n1` has a melting point of 147 to 149 °C. With `CC(CS)C(=O)N1c2ccccc2CCC1C(=O)O` (stereo not drawn) the melting point was 98 to 101 °C. `CCCN(c1ccncc1)n1ccc2cc(OC(=O)NCc3ccccc3)ccc21` showed a melting point of 156 to 158 °C. In the case of `CC(C)c1nc(CO)n(C)c1Sc1cc(Cl)cc(Cl)c1`, the melting point is reported as 157 to 158 °C. With `Fc1ccc(CCCCN2CCN(c3ncc(F)cn3)CC2)cc1` the melting point was 59 to 61 °C. Work on `NC(=O)c1sc2cncc(Oc3ccc(Cl)cc3)c2c1N` yielded a melting point of 202 to 204 °C. `O=Cc1cc2ccc3c4ccccc4ccc3c2o1` gave a melting point of 123 °C. `COC1C(O)C=C(C)C(OC(=O)c2ccccc2)CC1(C)C` (stereo not drawn) gave a melting point of 82.5 to 83.5 °C. With `CCCCOc1c2c(nc3c1cnn3CC)C(O)c1ccccc1CC2` (stereo not drawn) the melting point was 163 to 165 °C. Compound `COc1ccc(Cl)cc1C(=O)NCCc1ccc(-c2cc(C)cs2)c(S(N)(=O)=O)c1` has a melting point of 165 to 168 °C. Work on `CCCCCc1csc(-c2ccc3c(c2)C=C(C(=O)Nc2ccc(CN(C)C4CCOCC4)cc2)CCS3(=O)=O)c1` yielded a melting point of 204 to 206 °C. Work on `Sc1nc2cc(N3CCNCC3)ccc2[nH]1` yielded a melting point of 260 to 261 °C. With `Cc1cc(C(O)CN(C)Cc2cc3c(=O)c(C(=O)NCc4ccc(Cl)cc4)cn(C)c3o2)oc1C` (stereo not drawn) the melting point was 140 °C. Work on `CC1(C)CCOc2cc(C(=O)O)ccc21` yielded a melting point of 173 to 174 °C.
